Laboratory results taken from patent US20030199671A1, “Binding molecules for Fc-region polypeptides” (priority 2001, published 2003).
Values belong to the compound of their own block, whether it stands above or below them. Positions of bridges follow the written chain, without caps; N, C: chain ends. Residues, ends and D or L forms follow the SMILES beside them.

Tests used:
human IgG1 = molecular target: T1, human IgG1 (Homo sapiens, UniProt P01857); assay: Column capture from conditioned CHO cell culture supernatant containing 5% fetal bovine serum; format: binding; details: SEC-HPLC; load 93% monomer
T1 construct: all human subtypes derived from myeloma patients; purchased Calbiochem 400120; host or cells: myeloma patients
T1 sequence (P01857 1-330 isoform P01857-1): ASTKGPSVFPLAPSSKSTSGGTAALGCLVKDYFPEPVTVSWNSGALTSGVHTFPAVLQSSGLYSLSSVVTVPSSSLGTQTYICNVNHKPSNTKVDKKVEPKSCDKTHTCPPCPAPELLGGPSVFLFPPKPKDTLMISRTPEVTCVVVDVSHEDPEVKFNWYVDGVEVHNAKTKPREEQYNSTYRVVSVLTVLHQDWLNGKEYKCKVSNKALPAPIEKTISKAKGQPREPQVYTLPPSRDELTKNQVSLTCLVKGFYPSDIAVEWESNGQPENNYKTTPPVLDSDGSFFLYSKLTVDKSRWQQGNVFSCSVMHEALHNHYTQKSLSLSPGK
Experimental: Human IgG1 (93% monomer) was spiked into conditioned CHO media to 50 μg/ml and 5 ml (250 μg total) was loaded onto a 350 μl mini-column as described above. The column was washed to baseline with PBST, pH 7.2 and the flowthrough fraction collected. Bound IgG was eluted with 0.1M sodium bicarbonate buffer, pH 9.0, and the column cleaned with 0.1M CAPS, pH 11.5. The eluted and clean fractions were quickly neutralized to ˜pH 7.2 and assayed for mass recovery by SEC-HPLC. Thus, an 80% recovery (98% monomer) was obtained in the eluted fraction. The column load, flowtbrough, elution and cleaning fractions were further analyzed by electrophoresis (SDS-PAGE), Coomassie stain and Western analysis for the presence of human and bovine IgG.

IgG4 = IgG4 (Homo sapiens, UniProt P01861); assay: Column capture of human IgG4 from goat IgG in buffer; format: binding; set-up: all human subtypes derived from myeloma patients; purchased Calbiochem 400126; host or cells: myeloma patients; details: SEC-HPLC; load 99.5% monomer
Chain of IgG4 (P01861 1-327 isoform P01861-1): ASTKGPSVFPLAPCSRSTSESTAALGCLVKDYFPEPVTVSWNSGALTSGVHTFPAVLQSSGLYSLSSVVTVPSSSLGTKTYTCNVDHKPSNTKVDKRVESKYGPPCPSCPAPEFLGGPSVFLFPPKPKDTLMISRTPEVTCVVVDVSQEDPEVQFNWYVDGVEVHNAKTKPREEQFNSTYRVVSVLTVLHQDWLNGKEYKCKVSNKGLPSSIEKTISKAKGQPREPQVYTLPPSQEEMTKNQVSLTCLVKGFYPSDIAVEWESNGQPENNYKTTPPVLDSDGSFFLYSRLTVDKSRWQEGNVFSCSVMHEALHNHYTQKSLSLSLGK
Experimental: 0.250 mg of hIgG4 (99.5% monomer) was added to 1.0 mg of goat IgG in a total volume of 1.0 ml of PBST, pH 7.2. Thus, 1.0 ml was loaded onto a 350 ul mini-column as described above. The column was washed to baseline with PBST, pH 7.2 and the flowthrough fraction collected. Bound IgG was eluted with 0.1M sodium bicarbonate buffer, pH 9.0 and the column cleaned with 0.1M CAPS, pH 11.5. The eluted and clean fractions were quickly neutralized to pH˜7.2 and assayed for mass recovery by SEC-HPLC. […] The column load, flowthrough, elution and cleaning fractions were further analyzed by electrophoresis (SDS-PAGE), Coomassie stain.

human Fc fragments = assay: Mini-chromatography column capture from PBST; format: binding; details: 350 μl column, Fc spiked into PBST, pH 7.2
Experimental: For these experiments, 350 μl columns (3×50 mm) were packed with each media. The columns were tested with human Fc fragments or human IgG1 (Calbiochem, 401104 and 400120 respectively) spiked into PBST, pH 7.2 at a concentration of 0.5 g/l. 65 μg of Fc was loaded onto each column. After loading, the columns were washed with PBST, pH 7.2, eluted with 30 mM H3PO4, 150 mM NaCl, pH 2.0 and cleaned with 0.1M CAPS, pH 11.5 buffer (3-[Cyclohexylamino]-1-propane-sulfonic acid). Fractions collected were immediately neutralized to pH ˜7.2 with 2.0 M Tris, pH 8.0. All column operations were conducted at 200 μl/min (170 cm/hr).

polyclonal human IgG = assay: DX253 column re-use: total dynamic binding capacity
Experimental: (§1) DX253 peptide was immobilized onto NHS-activated 4 Fast Flow to a ligand density of 2.9 μmole/ml as determined by quantitative amino acid analysis. This affinity resin was packed into a 4.6 mm×6 cm (internal diam.×length, 1.0 ml bed volume) PEEK column (Isolation Technologies, Inc., 5050IP-08046-006-20).
To establish total dynamic binding capacity, polyclonal human IgG (ICN, 55908) was prepared in PBS, pH 7.2 containing 0.05% NaN3 at 2.5 mg/ml. A total of 75 mg (30 ml) was loaded at 0.21 ml/minute (75 cm/hr) to capacity (until the absorbance at 280 nm of the load was equivalent to that of the column flowthrough). Fractions were collected across the entire run. Unbound IgG was washed to baseline at 0.42 ml/minute (150 cm/hour) with PBS, pH 7.2. Bound IgG was eluted with 0.1M citrate, pH 3.0 buffer and immediately neutralized with minimal addition of 1M HEPES, pH 9.0 buffer to ˜pH 7.0. […] All post-load wash, elution and cleaning steps were performed at a flow rate of 0.42 ml/minute (150 cm/hour). Total mg IgG bound was determined by measuring the absorbance at 280 nm of the elution fraction calculated using an extinction coefficicent of 1.4. Initial (T=0, prior to initiating column cycling) total dynamic capacity measured 19.8 mg human IgG per ml affinity resin. […] Mass balance recovery for these 5 total capacity determinations averaged 98%. […] The column retained approximately 90% relative performance with respect to total dynamic capacity after 95 cycles.

human IgG = assay: DX253 column cycling with IgG spiked cell culture media
Experimental: as §1
Human IgG was spiked into fresh cell culture media (DMEM) containing 10% fetal bovine serum (ultra low) to 0.5 mg/ml. 2 ml (1.0 mg IgG) was loaded onto the column which was pre-equilibrated with PBS, pH 7.2. Loading was performed at 0.21 ml/minute (75 cm/hour) and all subsequent steps (wash, elution and cleaning) were performed at 0.42 ml/minute (150 cm/hour). Unbound sample was washed to baseline with PBS, pH 7.2, followed by elution with 0.1M citrate, pH 3.0, wash with PBS, pH 7.2, cleaning with 3M guanidine-HCl, 20 mM phosphate, pH 7.2 and re-equilibration back into PBS, pH 7.2. A total of 19 series of 5 cycles each (95 cycles total) were run. […] This procedure was used for cycles 1-25, 27-65, 67-85, and 87-95.

Monomer in the eluted fraction (human IgG1): 98% | Monomer in the eluted fraction (IgG4): 99.5%
Compound: CC[C@H](C)[C@@H]1NC(=O)[C@H](CC(C)C)NC(=O)[C@H](CCC(=O)O)NC(=O)CNC(=O)[C@H](Cc2c[nH]c3ccccc23)NC(=O)[C@H]([C@@H](C)O)NC(=O)[C@H]([C@@H](C)O)NC(=O)[C@H](Cc2ccc(O)cc2)NC(=O)[C@H](C(C)C)NC(=O)[C@@H](NC(=O)[C@H](CCSC)NC(=O)[C@H](Cc2c[nH]cn2)NC(=O)[C@H](CC(=O)O)NC(=O)[C@H](CC(=O)O)NC(=O)CNC(C)=O)CSSC[C@@H](C(=O)N[C@@H](CC(=O)O)C(=O)N[C@@H](CC(N)=O)C(=O)N[C@@H](Cc2c[nH]cn2)C(=O)N[C@@H](CCC(=O)O)C(=O)N2CCC[C@H]2C(=O)NCC(=O)N2CCC[C@H]2C(=O)N[C@@H](CCC(=O)O)C(=O)NCC(=O)NCC(=O)NCC(=O)N[C@@H](CCCCN)C(N)=O)NC(=O)[C@H](Cc2c[nH]c3ccccc23)NC1=O [DX249] (Ac-GDDHMCVYTTWGELIWCDNHEPGPEGGGK-NH2; disulfide 6-17)

Compound: CC(=O)NCC(=O)N[C@@H](CC(=O)O)C(=O)N[C@@H](CC(=O)O)C(=O)N[C@@H](CC(=O)O)C(=O)N[C@@H](Cc1c[nH]cn1)C(=O)N[C@H]1CSSC[C@@H](C(=O)N2CCC[C@H]2C(=O)N[C@@H](Cc2c[nH]cn2)C(=O)NCC(=O)N[C@@H](CCC(=O)O)C(=O)N2CCC[C@H]2C(=O)NCC(=O)N2CCC[C@H]2C(=O)N[C@@H](CCC(=O)O)C(=O)NCC(=O)NCC(=O)NCC(=O)N[C@@H](CCCCN)C(N)=O)NC(=O)[C@H](CCC(=O)O)NC(=O)[C@H](CO)NC(=O)[C@H](CC(N)=O)NC(=O)[C@H](Cc2ccccc2)NC(=O)[C@H](Cc2c[nH]c3ccccc23)NC(=O)[C@H](CCC(=O)O)NC(=O)[C@H](CCCNC(=N)N)NC(=O)[C@H](Cc2ccccc2)NC(=O)[C@H](Cc2c[nH]c3ccccc23)NC(=O)[C@H](Cc2ccc(O)cc2)NC1=O [DX252] (Ac-GDDDHCYWFREWFNSECPHGEPGPEGGGK-NH2; disulfide 6-17 (inferred))
Capture efficiency, Fc (human Fc fragments): 70%

Initial total dynamic capacity (polyclonal human IgG; T=0, ligand density 2.9 μmole/ml): 19.8 mg human IgG per ml affinity resin | % Relative Performance (total capacity vs T=0, 19.8 mg/ml) (polyclonal human IgG; Total Capacity Cycle Run No. 0): 100% | % Relative Performance (total capacity vs T=0, 19.8 mg/ml) (polyclonal human IgG; Total Capacity Cycle Run No. 26): 93.9% | % Relative Performance (total capacity vs T=0, 19.8 mg/ml) (polyclonal human IgG; Total Capacity Cycle Run No. 66): 85.9% | % Relative Performance (total capacity vs T=0, 19.8 mg/ml) (polyclonal human IgG; Total Capacity Cycle Run No. 86): 91.4% | % Relative Performance (total capacity vs T=0, 19.8 mg/ml) (polyclonal human IgG; Total Capacity Cycle Run No. 96): 87.9% | Relative performance with respect to total dynamic capacity (polyclonal human IgG; after 95 cycles): approximately 90%
Compound: Ac-GDRRACSRDWSGALVWCAGHEPGPEGGGK-NH2 (not fully specified (bridges); printed as Ac-GDRRACSRDWSGALVWCAGHEPGPEGGGK-NH2; cysteine pairing not given here) [DX253]
% Relative Performance (elution peak area vs cycle 1) (human IgG; Cycling Run No. 1, cycling run 1): 100% | % Relative Performance (elution peak area vs cycle 1) (human IgG; Cycling Run No. 10, cycling run 10): 97.6% | % Relative Performance (elution peak area vs cycle 1) (human IgG; Cycling Run No. 20, cycling run 20): 97.9% | % Relative Performance (elution peak area vs cycle 1) (human IgG; Cycling Run No. 30, cycling run 30): 102.3% | % Relative Performance (elution peak area vs cycle 1) (human IgG; Cycling Run No. 40, cycling run 40): 103.1% | % Relative Performance (elution peak area vs cycle 1) (human IgG; Cycling Run No. 51, cycling run 51): 102.0% | % Relative Performance (elution peak area vs cycle 1) (human IgG; Cycling Run No. 60, cycling run 60): 103.1% | % Relative Performance (elution peak area vs cycle 1) (human IgG; Cycling Run No. 70, cycling run 70): 102.6% | % Relative Performance (elution peak area vs cycle 1) (human IgG; Cycling Run No. 81, cycling run 81): 102.1% | % Relative Performance (elution peak area vs cycle 1) (human IgG; Cycling Run No. 90, cycling run 90): 101.8%
